# Calls of active or inactive are those of the source. The calls are words filed in the database; no cut-off is given here.
# How the values were obtained:
# [1] = Inhibition of NF-kappaB in TNF-alpha-stimulated human cloned Jurkat 5.1 cells cotransfected with HIV1-LTR promoter preincubated for 30 mins before TNFalpha challenge after 6 hrs by luciferase reporter gene assay; type: cell-based
# A549 [2] = assay: Inhibition of NF-kappaB in TNF-alpha-stimulated human A549 cells cotransfected with KBF-luciferase gene preincubated for 30 mins before TNFalpha challenge after 6 hrs by luciferase reporter gene assay; type: cell-based
# HeLa = assay: Cytotoxicity against human HeLa cells using propidium iodide staining by flow cytometry; type: functional, cell-based
# A549 [3] = assay: Cytotoxicity against human A549 cells using propidium iodide staining by flow cytometry; type: functional, cell-based
# Jurkat = assay: Cytotoxicity against human cloned Jurkat 5.1 cells using propidium iodide staining by flow cytometry; type: functional, cell-based
SMILES,IC50 [1] [µM],Activity (A549 [2]),Activity (HeLa),Activity (A549 [3]),Activity (Jurkat)
CC(C)=CCC(O)/C(C)=C/C(O)C/C(C)=C/COc1ccc2ccc(=O)oc2c1 (configuration not stated),37.5,,,,
CC(=O)OC(CC=C(C)C)/C(C)=C/C(O)C/C(C)=C/COc1ccc2ccc(=O)oc2c1 (configuration not stated),15.1,Dose-dependent effect,inactive,inactive,inactive
CC1=CC(=O)C2=C(C)CC3OC(=O)C(C)=C3C=C12 (configuration not stated) [TARAXACIN],57.6,,,,
